Publication PMC8126888 (RSC Medicinal Chemistry, 2020)
Like-named read-outs stand apart in the source and are kept apart here.

Columns and labels:
in vitro [1] = details: human, microsomes, intrinsic in vitro clearance, liver microsomes
[2] = metabolite ID, peak area of substrate or metabolite
[3] = test system: Leishmania infantum MHOM/MA(BE)/67/ITMAP263 intracellular amastigotes; assay: microbe, parasite or virus in culture; details: Macrophage, in Mus musculus, read-out: L. inf. pIC50, intracellular amastigotes in PMM (converted), geometric mean of a minimum of two experiments ± standard error
physchem = details: HPLC, Ascentis Express RP Amide column, pH 7.4, elog D, HPLC measured log D, pH 7.4
[4] = test system: primary peritoneal mouse macrophages (PMM); assay: cells; details: Macrophage, read-out: PMM pIC50 (converted)
[5] = metabolite ID, peak area of substrate or metabolite; remark: listed apart in the source
in vitro [6] = details: mouse, microsomes, pH 7.4, Microsome Clint Mouse, intrinsic in vitro clearance, liver microsomes
[7] = test system: Leishmania infantum (MHOM/MA/67/ITMAP-263) intracellular amastigotes in THP-1; assay: microbe, parasite or virus in culture; details: THP-1, 120 h, read-out: Intracellular activity pIC50 L. inf. in THP-1 (converted)
in vitro [8] = details: human, PMA-differentiated THP-1 cells
T. b. brucei (Squib-427) = assay: microbe, parasite or virus in culture; details: Trypanosoma brucei, RHODESIENSE
[9] = human liver microsomes
[10] = test system: primary peritoneal mouse macrophages (PMM); assay: Cytotoxicity to PMM (microscopic scoring within susceptibility assay); details: Swiss, mouse
[11] = test system: Leishmania infantum MHOM/MA(BE)/67/ITMAP263 intracellular amastigotes
[12] = test system: Trypanosoma cruzi, Tulahuen CL2, beta-galactosidase strain; details: read-out: T. cruzi Tulahuen C4 (LacZ) IC50
[13] = mouse liver microsomes
[14] = pH 7.4
[15] = test system: primary peritoneal mouse macrophages (PMM); details: PMM IC50 / L. infantum IC50
MRC-5SV2 cells = assay: Cytotoxicity assay on MRC-5SV2 cells (resazurin); details: human, 3 days

In the case of `COc1ccc(OC)c(S(=O)(=O)N(C)Cc2ccc(F)cc2)c1` [Compound 37], the microsomal CLint at 0.5 μM (in vitro [1]; pH 7.4, Microsome Clint,u Human, Table 2) is reported as 414 µL/min/mg, the “Area% Human” value [2] is reported as 22.5% and the IC50 [3] is reported as 11.7 µM. For the same compound, the chromatographic logD (physchem) was 3.7, the IC50 [4] was > 64.6 µM and the “Area% Mouse” value [5] was 76.1%.
Work on `COc1ccc(C(=O)NC2COC2)cc1S(=O)(=O)N(Cc1ccc(F)cc1)Cc1ccc(F)cc1` [Compound 23] yielded a microsomal CLint at 0.5 μM (in vitro [6]) of 395 µL/min/mg, a microsomal CLint at 0.5 μM (in vitro [1]; pH 7.4, Microsome Clint Human) of 178 µL/min/mg and an IC50 [7] of 8.51 µM. The IC50 at 120 h (in vitro [8]) was > 64.6 µM, the “Area% Human” value [2] was 84.9% and the IC50 [3] was 0.794 µM. The chromatographic logD (physchem) was 4, the IC50 [4] was > 64.6 µM and the “Area% Mouse” value [5] was 89.1%.
With `Cc1ccc(C(=O)Nc2ccc(S(=O)(=O)O)c3cc(S(=O)(=O)O)cc(S(=O)(=O)O)c23)cc1NC(=O)c1cccc(NC(=O)Nc2cccc(C(=O)Nc3cc(C(=O)Nc4ccc(S(=O)(=O)O)c5cc(S(=O)(=O)O)cc(S(=O)(=O)O)c45)ccc3C)c2)c1` [Suramin] the IC50 (T. b. brucei (Squib-427)) was ~0.05 µM.
For `CC[C@H](Cc1ccccc1)[S+]([O-])c1ccccc1OC` (stereo partly shown) [DNDI0003362002], the “HLM CLint” value [9] was 390 µL/min/mg, the IC50 [10] was > 64 µM and the “L. Inf. pIC50” value ([11]; from L. infantum intracellular amastigote IC50) was 4.45. For the same compound, the IC50 ([11]; read-out: L. infantum MHOM/MA(BE)/67/ITMAP263 intracellular amastigotes IC50) was 35.3 µM, the IC50 [12] was 30.8 µM and the “MLM CLint” value [13] was 3623 µL/min/mg. For the same compound, the eLogD [14] was 3.7, the “SI (vs PMM)” value [15] was 2 and the CC50 (MRC-5SV2 cells) was > 64 µM.
